The record followed here is ChEMBL document CHEMBL1201862, “PubChem BioAssay data set” (2004).

Calls of active or inactive are those of the source.

In general, IC50 refers to the midpoint of a concentration-inhibition curve. For orientation: EC50 means the concentration giving half of the maximal effect.

One test concerns the target T1, Aminopeptidase N (Plasmodium falciparum FcB1/Columbia, UniProt O96935).
T1 sequence (O96935 whole entry): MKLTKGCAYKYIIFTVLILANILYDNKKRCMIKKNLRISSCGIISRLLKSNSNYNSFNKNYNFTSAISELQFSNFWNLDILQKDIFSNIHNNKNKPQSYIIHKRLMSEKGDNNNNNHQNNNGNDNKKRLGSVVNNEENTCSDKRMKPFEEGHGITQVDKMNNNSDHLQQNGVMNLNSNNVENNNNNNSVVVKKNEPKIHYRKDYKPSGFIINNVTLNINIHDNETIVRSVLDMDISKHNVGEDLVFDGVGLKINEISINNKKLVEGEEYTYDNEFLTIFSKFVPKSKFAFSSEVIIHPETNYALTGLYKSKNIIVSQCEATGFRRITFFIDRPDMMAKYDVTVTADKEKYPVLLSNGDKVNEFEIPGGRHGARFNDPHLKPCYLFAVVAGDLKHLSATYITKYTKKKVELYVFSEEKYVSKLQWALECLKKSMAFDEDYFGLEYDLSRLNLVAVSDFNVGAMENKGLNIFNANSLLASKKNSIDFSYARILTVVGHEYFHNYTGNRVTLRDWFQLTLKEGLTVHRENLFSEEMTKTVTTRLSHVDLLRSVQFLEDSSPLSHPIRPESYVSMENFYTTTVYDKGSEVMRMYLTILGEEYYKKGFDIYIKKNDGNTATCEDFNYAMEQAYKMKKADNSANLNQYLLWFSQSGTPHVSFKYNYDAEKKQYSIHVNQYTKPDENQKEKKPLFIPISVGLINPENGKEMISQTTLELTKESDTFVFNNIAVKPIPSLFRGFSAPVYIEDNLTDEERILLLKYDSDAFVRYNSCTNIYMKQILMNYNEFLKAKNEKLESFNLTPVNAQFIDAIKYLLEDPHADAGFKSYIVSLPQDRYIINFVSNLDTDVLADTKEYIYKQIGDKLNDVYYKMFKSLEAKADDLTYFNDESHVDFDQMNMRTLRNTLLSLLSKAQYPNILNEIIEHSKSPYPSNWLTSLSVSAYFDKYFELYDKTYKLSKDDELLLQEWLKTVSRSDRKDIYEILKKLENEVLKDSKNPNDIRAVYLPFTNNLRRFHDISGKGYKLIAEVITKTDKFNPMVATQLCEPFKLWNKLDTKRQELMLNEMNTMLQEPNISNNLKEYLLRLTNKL
Nature of the test: P. falciparum M1AAP inhibitors, biochemical, fluorogenic H-Leu-NHMec substrate, 1536-well (AID 1445). Details: species or system Plasmodium falciparum 3D7, 3D7.
Regarding `O=c1nc(N2CCCCC2)nc(Nc2ccccc2)[nH]1`, the concentration for half-maximal inhibition (IC50) was 51.9 µM (active).

On to `O=C(CP(=O)(c1ccccc1)c1ccccc1)N/N=C/c1cc(Br)cc(Br)c1O`, for which the concentration for half-maximal inhibition (IC50) was 12.4 µM (active).

The test system of the next test is Streptococcus sp. 'group A'. Nature of the test: growth inhibition of control SK(-) GAS strain, dose response, counter-screen for streptokinase expression inhibitor project, luminescence, kanamycin, BacTiterGlo, confirmation (AID 1900). The format is functional, organism-based.
Regarding `O=C(CP(=O)(c1ccccc1)c1ccccc1)N/N=C/c1cc(Br)cc(Br)c1O`, the concentration giving a half-maximal response (EC50) is 0.8 µM (active).

System in another test: not listed separately
Nature of the test: inhibitors of intracellular T. cruzi replication, confirmation, NIH3T3 host cells, beta-gal luminescence (AID 2044).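 Also: intracellular parasites grown in NIH/3T3 mouse fibroblasts as host cells; luminescent beta-galactosidase reporter signal from transgenic T. cruzi replicating inside host cells; inhibitors lower the luminescence signal.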 The format is functional, cell-based.
Consider `Cc1c(Cl)cccc1Nc1nc(NCCO)c2ccccc2n1`, for which the half-maximal effective concentration (EC50) is 1.2 µM (active).

System in another test: not listed separately
As to the kind of experiment: cytotoxicity toward NIH3T3 fibroblasts, dose response, counter-screen, cell-based, ATP luminescence, mouse fibroblasts (AID 2010).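 Also: cells exposed to compound for about 90 hours before reading.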 The format is functional.
Turning to `Cc1c(Cl)cccc1Nc1nc(NCCO)c2ccccc2n1`, the concentration giving a half-maximal response (EC50) was > 60 µM (not active).

The subject of another test is Streptococcus. Nature of the test: Group A Streptococcus viability loss, dose response, counter-screen for streptokinase expression inhibitor project, luminescence, BacTiterGlo (AID 1915).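 Also: potency for reduction of bacterial viability or growth.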 Type of test: functional, organism-based. On the technique in general: Counterscreens check selectivity or assay interference.
For the compound `O=C(CP(=O)(c1ccccc1)c1ccccc1)N/N=C/c1cc(Br)cc(Br)c1O`, the concentration for a half-maximal effect (EC50) is 2.32 µM (active).

Another test has as its target T2, Mannose-6-phosphate isomerase (Homo sapiens, UniProt P34949).
T2 sequence (P34949 whole entry): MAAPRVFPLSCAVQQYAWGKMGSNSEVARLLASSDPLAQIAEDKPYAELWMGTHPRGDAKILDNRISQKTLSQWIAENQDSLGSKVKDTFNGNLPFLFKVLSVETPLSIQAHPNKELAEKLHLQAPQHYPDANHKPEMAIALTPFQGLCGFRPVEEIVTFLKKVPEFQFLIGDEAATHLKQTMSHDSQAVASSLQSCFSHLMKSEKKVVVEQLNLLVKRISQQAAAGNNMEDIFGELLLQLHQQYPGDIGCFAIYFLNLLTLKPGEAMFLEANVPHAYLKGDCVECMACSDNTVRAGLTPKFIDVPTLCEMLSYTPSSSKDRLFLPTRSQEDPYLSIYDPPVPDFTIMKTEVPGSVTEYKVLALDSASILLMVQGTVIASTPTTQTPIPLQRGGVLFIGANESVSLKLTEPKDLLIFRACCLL
Nature of the test: human PMI inhibitors, high substrate, primary screen, biochemical, fluorescence intensity, high mannose 6-phosphate (AID 1220).
With `CC1CCCN(CCC(=O)c2ccc(Br)cc2)C1` (configuration not stated), the IC50 is > 50 µM (not active).

System in the next test: not listed separately
As to the kind of experiment: cells. The format is functional.
With `CC1CCCN(CCC(=O)c2ccc(Br)cc2)C1` (configuration not stated), the IC50 was 15.2 µM (active).

System in a further test: not listed separately
Nature of the test: cells. The format is functional, cell-based. This is another data set of the same source.
`Cc1c(Cl)cccc1Nc1nc(NCCO)c2ccccc2n1`: the IC50 is > 29.9 µM (inactive).

On to `Cc1ccc(N2CN(CCc3ccccc3)CN=C2S)cc1`, for which the IC50 was > 29.9 µM (inactive).

Consider `CC1CCCN(CCC(=O)c2ccc(Br)cc2)C1` (configuration not stated), for which the IC50 is > 29.9 µM (inactive).

`CN(CCc1ccccc1)Cc1c[nH]c2ccccc12`: the IC50 is > 29.9 µM (inactive).

As to `O=C(Cc1nnc(NC(=O)Nc2ccccc2)s1)Nc1ccccc1`, the IC50 is > 29.9 µM (inactive).

Take `COc1ccc(-c2cc(C3CCN(CC(O)C(F)(F)F)CC3)[nH]n2)cc1` (configuration not stated): the IC50 was > 29.9 µM (inactive).

For the next test, the target named is T3, Trace amine-associated receptor 1 (Homo sapiens, UniProt Q96RJ0).
T3 sequence (Q96RJ0 whole entry): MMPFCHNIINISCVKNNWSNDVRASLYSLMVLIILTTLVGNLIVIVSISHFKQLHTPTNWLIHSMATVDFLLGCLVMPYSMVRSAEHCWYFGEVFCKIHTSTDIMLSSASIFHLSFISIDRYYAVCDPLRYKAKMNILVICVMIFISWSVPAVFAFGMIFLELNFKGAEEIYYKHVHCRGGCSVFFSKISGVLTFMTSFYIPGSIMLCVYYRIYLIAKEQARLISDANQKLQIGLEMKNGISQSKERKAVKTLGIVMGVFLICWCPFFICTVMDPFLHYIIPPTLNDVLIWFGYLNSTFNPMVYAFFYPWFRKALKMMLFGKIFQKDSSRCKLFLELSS
Nature of the test: Fluorescence-based cell-based high throughput dose response assay to identify agonists of the human trace amine associated receptor 1 (TAAR1). The format is functional.
For the compound `Cc1c(Cl)cccc1Nc1nc(NCCO)c2ccccc2n1`, the EC50 was 2.94 µM (active).

`O=c1nc(N2CCCCC2)nc(Nc2ccccc2)[nH]1`: the EC50 was 3.44 µM (active).

For the compound `Cc1ccc(N2CN(CCc3ccccc3)CN=C2S)cc1`, the concentration giving a half-maximal response (EC50) was 1.16 µM (active).

As for `CC1CCCN(CCC(=O)c2ccc(Br)cc2)C1` (configuration not stated), the 50% effective concentration (EC50) was 1.67 µM (active).

Consider `CN(CCc1ccccc1)Cc1c[nH]c2ccccc12`, for which the concentration for a half-maximal effect (EC50) was 1.05 µM (active).

As for `O=C(Cc1nnc(NC(=O)Nc2ccccc2)s1)Nc1ccccc1`, the EC50 is > 0.0015 µM (active).

As to `COc1ccc(-c2cc(C3CCN(CC(O)C(F)(F)F)CC3)[nH]n2)cc1` (configuration not stated), the EC50 was 3.52 µM (active).

For a further test, the target named is Albumin (Bos taurus, UniProt P02769). Nature of the test: Counterscreen for inhibitors of T-cell receptor (TCR)-CD3 interaction: Fluorescence-based biochemical high throughput dose response assay to identify inhibitors of T-cell receptor (TCR)-CD3 interaction using a TAMRA-labeled BSA probe. Type of test: functional.
Chain of Albumin (P02769 whole entry): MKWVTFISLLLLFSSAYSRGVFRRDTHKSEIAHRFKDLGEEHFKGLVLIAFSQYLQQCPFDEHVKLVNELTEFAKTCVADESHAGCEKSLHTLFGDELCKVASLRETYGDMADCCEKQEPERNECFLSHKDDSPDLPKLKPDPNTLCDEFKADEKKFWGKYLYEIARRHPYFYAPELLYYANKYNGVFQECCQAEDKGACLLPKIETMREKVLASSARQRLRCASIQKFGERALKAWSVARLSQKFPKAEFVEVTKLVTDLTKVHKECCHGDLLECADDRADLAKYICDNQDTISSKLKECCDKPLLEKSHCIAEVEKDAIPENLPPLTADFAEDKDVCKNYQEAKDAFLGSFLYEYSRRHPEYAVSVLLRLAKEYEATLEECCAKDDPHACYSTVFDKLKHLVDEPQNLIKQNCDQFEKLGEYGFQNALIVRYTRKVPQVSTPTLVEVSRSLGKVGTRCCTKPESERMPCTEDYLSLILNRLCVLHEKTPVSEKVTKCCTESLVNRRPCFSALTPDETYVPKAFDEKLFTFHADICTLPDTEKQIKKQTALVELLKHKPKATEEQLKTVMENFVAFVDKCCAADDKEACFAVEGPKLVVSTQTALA
Take `O=C(CCNC(=O)c1ccc(Br)cc1)NNC(=O)c1ccccc1O`: the IC50 is > 94.1 µM (inactive).

In the case of `COc1ccc(NC(=O)NNC(=O)c2ccc3ccccc3c2O)cc1OC`, the IC50 is > 94.1 µM (inactive).

Take `O=C(CP(=O)(c1ccccc1)c1ccccc1)N/N=C/c1cc(Br)cc(Br)c1O`: the IC50 is > 94.2 µM (inactive).

The target of another test is T3, Trace amine-associated receptor 1. Nature of the test: Counterscreen for agonists of the human trace amine associated receptor 1 (hTAAR1): Fluorescence-based cell-based high throughput dose response assay to identify hTAAR1 agonist that also desensitize TAAR1 receptor response. Type of test: functional.
With `Cc1c(Cl)cccc1Nc1nc(NCCO)c2ccccc2n1`, the concentration for half-maximal inhibition (IC50) was 6.83 µM (active).

With `O=c1nc(N2CCCCC2)nc(Nc2ccccc2)[nH]1`, the IC50 is 4.65 µM (active).

As to `Cc1ccc(N2CN(CCc3ccccc3)CN=C2S)cc1`, the IC50 is 7.74 µM (active).

Take `CC1CCCN(CCC(=O)c2ccc(Br)cc2)C1` (configuration not stated): the IC50 is 20.1 µM (inactive).

Turning to `CN(CCc1ccccc1)Cc1c[nH]c2ccccc12`, the IC50 was 13.2 µM (inactive).

Regarding `O=C(Cc1nnc(NC(=O)Nc2ccccc2)s1)Nc1ccccc1`, the IC50 is > 1.11 µM (active).

`COc1ccc(-c2cc(C3CCN(CC(O)C(F)(F)F)CC3)[nH]n2)cc1` (configuration not stated): the 50% inhibitory concentration (IC50) was 7.6 µM (active).

System in a further test: not listed separately
As to the kind of experiment: cells. The format is functional, cell-based. This is another data set of the same source.
On to `Cc1c(Cl)cccc1Nc1nc(NCCO)c2ccccc2n1`, for which the EC50 is > 29.9 µM (inactive).

On to `Cc1ccc(N2CN(CCc3ccccc3)CN=C2S)cc1`, for which the EC50 was > 29.9 µM (inactive).

As to `CC1CCCN(CCC(=O)c2ccc(Br)cc2)C1` (configuration not stated), the EC50 was > 29.9 µM (inactive).

With `CN(CCc1ccccc1)Cc1c[nH]c2ccccc12`, the EC50 is > 29.9 µM (inactive).

As for `O=C(Cc1nnc(NC(=O)Nc2ccccc2)s1)Nc1ccccc1`, the EC50 is > 29.9 µM (inactive).

Take `COc1ccc(-c2cc(C3CCN(CC(O)C(F)(F)F)CC3)[nH]n2)cc1` (configuration not stated): the EC50 is > 29.9 µM (inactive).

Target in another test: not listed separately
As to the kind of experiment: human group III sPLA2 inhibitors, dose response, biochemical, QFRET, IC50 (AID 743457).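 Also: green fluorescence rise as the enzyme cleaves BODIPY PC-A2 in liposomes; potency for inhibition of the enzyme.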
On to `C=CCNC(S)=NNc1nc(O)c2c(n1)-c1ccccc1CC21CCCCC1`, for which the IC50 is 73.1 µM (inactive).

Consider `CC(C)c1cc(C(=O)NN=C(S)NCc2ccco2)c(O)c(C(C)C)c1`, for which the IC50 is 18.8 µM (inactive).

Turning to `COc1ccc(NC(=O)NNC(=O)c2ccc3ccccc3c2O)cc1OC`, the IC50 is > 122 µM (inactive).

As to `Cn1ccc2c(N3CCCCCCC3)cc3c(c21)C1CCC3O1` (configuration not stated), the IC50 was > 122 µM (inactive).

As to `CCCCNC(=S)N/N=C/c1cccc(OCC)c1O`, the IC50 was > 122 µM (inactive).
